Data as given in ChEMBL document CHEMBL2157867, “2-(4-Chlorophenyl)-2-oxoethyl 4-benzamidobenzoate derivatives, a novel class of SENP1 inhibitors: Virtual screening, synthesis and biological evaluation” (Bioorg Med Chem Lett, 2012).

Target: T1, Sentrin-specific protease 1 (Homo sapiens, UniProt Q9P0U3)
T1 sequence (Q9P0U3 whole entry): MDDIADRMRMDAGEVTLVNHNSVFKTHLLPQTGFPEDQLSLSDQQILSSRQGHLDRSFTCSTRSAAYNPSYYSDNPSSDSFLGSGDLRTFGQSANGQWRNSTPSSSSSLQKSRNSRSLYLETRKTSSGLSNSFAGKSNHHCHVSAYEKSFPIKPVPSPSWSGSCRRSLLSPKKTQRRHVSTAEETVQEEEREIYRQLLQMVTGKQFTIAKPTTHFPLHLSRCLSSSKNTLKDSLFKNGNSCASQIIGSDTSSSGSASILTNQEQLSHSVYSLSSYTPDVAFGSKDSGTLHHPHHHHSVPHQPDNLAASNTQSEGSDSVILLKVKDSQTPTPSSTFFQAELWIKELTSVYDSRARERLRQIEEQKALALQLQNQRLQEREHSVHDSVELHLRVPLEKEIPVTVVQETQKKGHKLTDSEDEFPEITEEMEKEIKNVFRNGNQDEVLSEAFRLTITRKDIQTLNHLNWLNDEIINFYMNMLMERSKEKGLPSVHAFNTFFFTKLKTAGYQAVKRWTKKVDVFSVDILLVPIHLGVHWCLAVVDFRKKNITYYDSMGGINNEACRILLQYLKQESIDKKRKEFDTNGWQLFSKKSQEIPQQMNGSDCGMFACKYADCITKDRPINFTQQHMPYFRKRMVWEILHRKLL
Test: Inhibition of recombinant His-tagged SENP1 catalytic domain expressed in Escherichia coli BL21(DE3) using His-tagged deltaRanGAP-SUMO2 as substrate incubated for 10 mins prior to substrate addition measured after 45 mins by SDS-PAGE analysis

SMILES | IC50 [µM]
O=C(COC(=O)c1ccc(NC(=O)c2cccc(O)c2)cc1)c1ccc(Cl)cc1 | > 50
Nc1cccc(C(=O)Nc2ccc(C(=O)OCC(=O)c3ccc(Cl)cc3)cc2)c1 | > 50
COc1ccc(C(=O)Nc2ccc(C(=O)OCC(=O)c3ccc(Cl)cc3)cc2)cc1OC | > 50
CCOc1ccc(C(=O)Nc2ccc(C(=O)OCC(=O)c3ccc(Cl)cc3)cc2)cc1OCC | > 50
